Experimental data reported in paper PMC11212260, “Next-generation neuropeptide Y receptor small-molecule agonists inhibit mosquito-biting behavior” (Parasites & Vectors, 2024).
pEC50: −log10 of the molar value. Where “and” joins values, the source holds several entries; their conditions need not be identical. Equal values may be shown once. Read-outs that look alike come from different tables or passages of the source.

Assays:
Ae. aegypti NPYLR7 = Ae. aegypti NPYLR7 (Aedes aegypti, UniProt U5N1H5); assay: In vitro calcium (GCaMP6s) FLIPR assay in HEK293T cells transfected with NPYLR7; assay type: cell-based; details: for activation at 1.2346 µM / activation at 3.7037 µM / activation at 11.1111 µM / activation at 33.3333 µM / activation at 100 µM: HEK-293T; for activation at 100 µM: single replicate of the dose-response curve; for in vitro potency (in words): relative to reference compound TDI-012631
Procedure: The in vitro screening assay was adapted from, and carried out at HD Biosciences (HDB, Shanghai) as follows: HEK293T (Thermo Fisher Scientific) cells were grown in Dulbecco’s modified Eagle medium (DMEM) (high glucose, with glutamine), 10% fetal bovine serum, 1% penicillin–streptomycin (Pen/Strep), seeded in a 75 cm^2 flask, and incubated at 37 °C and 5% CO2. Cells were transiently transfected with 1 μg of each plasmid expressing GCaMP6s (Addgene […]) (Chen et al., 2013), mouse Gqα15 (Addgene #40753) (Offermanns and Simon, 1995) and Ae. aegypti NPYLR7 (Addgene #52392) (Duvall et al. 2019) using Lipofectamine 2000 (Invitrogen) in 4 ml of Opti-MEM (Invitrogen). This mixture was added to a plate after 20 min and incubated for 6–8 h. Cells were then trypsinized, resuspended in phenol-free media, and plated in a 384-well plate (Greiner Bio-One) at a density of 20,000 cells per 40 μl, and incubated overnight (37 °C, 5% CO2). Cells were imaged directly in phenol-free media. Plates were loaded into a Molecular Devices fluorescence imaging plate reader (FLIPR) with an excitation wavelength of 470–495 nm and an emitted wavelength of 515–575 nm. Plates were imaged every second for 5 min. After 30 s of baseline fluorescence recording, 10 μl of the test compound in reading buffer [Hank’s Balanced Salt Solution (Gibco) + 20 mM HEPES (Sigma-Aldrich)] was added. Concentrations tested ranged from 0 to 100 μM. Data were collected in raw fluorescence units (RFU).
Each test plate included replicates of 10 μM FMRFa3 (H‐Ala‐Gly‐Gln‐Gly‐Phe‐Met‐Arg‐Phe‐NH2), an Ae. aegypti neuropeptide agonist of NPYLR7 used to calculate the hundred percent effect (HPE). The zero percent effect (ZPE) control was calculated as a response to buffer alone. The Z′ factor was calculated for each plate by Z^′=1-3σHPE+3σZPE/|μHPE-μZPE| . Plates with Z′ < 0.5 were excluded from analysis. Raw fluorescence units (RFU) were converted to percent effect relative to the average of the ZPE and HPE. Percent effect = (sample luminescence − average ZPE)/(average HPE − average ZPE)×100. […] Each replicate was plotted as percent effect versus log[concentration], and replicates with maximal responses between 20 and 250% were used for EC50 calculations. Relative EC50 was calculated using an [Agonist] versus response–variable slope four-parameter model where Y=Bottom+(X^Hillslope)∗(Top-Bottom)/(X^HillSlope+EC50^HillSlope) . For compounds with multiple replicates, the relative EC50 of each replicate was averaged.

[1] = test system: Aedes aegypti (Orlando strain) females; assay: Glytube feeding: females feeding to repletion and weight per female (meal palatability); assay type: in vivo; details: Supplemental Figure 1 Panel A; compounds of Fig 3; individual replicate values
Procedure: (§1) Groups of 60–150 females were placed in bucket cages with a diameter of 21.6 cm and height of 16.5 cm (VWR) and fasted with access to water for 24 h prior to feeding. Meals were delivered to females via Glytube membrane feeders as described previously. Meals consisted of 1.5 ml sheep blood (HemoStat Laboratories), saline (400 mM NaHCO3 + dih2O), or saline and test compound. Lyophilized compounds were stored at room temperature until use. High-concentration stocks (30 mM in 100% dimethyl sulfoxide [DMSO]) (Sigma-Aldrich) were stored at −20 °C and diluted in saline immediately prior to feeding. Once prepared, meals and glycerol heating elements were warmed in a 42 °C water bath for 15 min to provide warmth to attract mosquitos to feed. ATP (1 mM final concentration) and test compounds (1 μM final concentration) were added prior to placing the meal on top of the mesh on the cage containing female mosquitos. Females were allowed 15–20 min to feed to repletion. Abdominal engorgement was scored by eye and confirmed by weighing females to ensure full feeding (Data S1). […] Females were returned to their original cage with a diH2O wick for 48 h prior to behavioral testing. The lethality of each compound was measured by counting the number of dead females in each cage 24 h post-meal.
Supplementary file 13071_2024_6347_MOESM1_ESM.png: Supplementary Material 1: Figure 1. […] (A) Percent of females feeding to repletion and (B) weight per female after feeding on the indicated meal used for testing in Miniport olfactometer experiments in Figure 3B. (C) Percent of females feeding to repletion and (D) weight per female after feeding on the indicated meal used for testing in live host assays in Figure 4. Data are shown as mean with standard deviation. n = 2–22 replicate cages, 60–150 females/cage. Females were weighed in groups of five to ensure reliable readings. Kruskal–Wallis with Dunn’s multiple comparisons to saline-fed group, ns P > 0.01, * P < 0.01, *** P < 0.0001. (PNG 321 KB)

[2] = test system: Aedes aegypti (Orlando strain) females; assay: Host-seeking screening assay (miniport olfactometer); assay type: in vivo; details: for Attraction (relative to saline): per-compound value of Fig. 3C
Procedure: as §1
Miniport olfactometers were fabricated in-house as described previously. Information regarding design, construction, and use can be found at https://github.com/VosshallLab/Miniport-Construction. Miniport canisters consisted of a 6″ × 3″ × 3″ acrylic tube with a mesh screen to allow for air flow. Groups of 10–20 females were loaded into canisters 24 h post-meal. Females were left in canisters overnight to acclimate with two cotton balls soaked in diH20 to prevent desiccation. Behavior trials began 48 h post-meal. Canisters were randomly assigned to attraction traps 1–4 and given 5 min to acclimate. The stimulus end of the trap was connected to a flowmeter that supplied 5% CO2 at a rate of 30 ml/min. Thirty seconds of CO2 flow was supplied to activate females prior to opening the sliding door. Once opened, the sliding door gave females access to the attraction trap baited with a human-scented nylon stocking previously worn by the same experimenter for 8–10 h to collect body odor and stored in a plastic bag at −20 °C until use. After 5 min, the sliding door was closed and attraction was scored as mosquitoes in the attraction trap/total number of mosquitoes. For each experiment data were normalized to the matched average saline attraction from the same experiment (% attracted/average saline attraction). Any dead mosquitoes were excluded from the analysis. Non-fed females and blood-fed females served as environmental control groups while the saline-fed females served as the vehicle control each day. If non-fed or saline-fed females were less than 50% attracted or if blood-fed females were more than 20% attracted behavioral trials were halted and all data from that experimental day were discarded.

[3] = test system: Aedes aegypti (Orlando strain) females; assay: Biting assay (mouse-in-cage); assay type: in vivo; parameters: key to Difference between medians: Actual (vs. saline) / Difference between medians: Hodges-Lehmann (vs. saline): differences in percent biting (blood-fed/total females, %); details: for Difference between medians: Actual (vs. saline) / Difference between medians: Hodges-Lehmann (vs. saline) / Median (percent freshly blood-fed) / Significantly different (P < 0.05)? vs. saline: fed 1 μM; for Percentage of females that freshly blood-fed on an anesthetized mouse: fed 1 μM 48 h prior, 15 min exposure, individual replicates; for effect on biting / blood-feeding from a live host (in words): fed at a dose of 1 μM
Procedure: as §1, with “ATP (1 mM final concentration) and test compounds (1 μM final concentration) were added prior to placing the meal on top of the mesh on the cage containing female mosquitos.” left out
This assay was modified from. Females were fed and scored as described above. Forty-eight hours post-meal, females were anesthetized in a 4 °C cold room and aspirated into a petri dish (Thermo Fisher Biosciences) with a randomly assigned color powder (Slice of the Moon; Chameleon Colors) to mark their treatment group. Females were then individually removed from the color powder, placed inside a cage measuring 91 cm × 61 cm × 61 cm (BugDorm), and allowed 2–4 h to recover. Each experiment consisted of a cage with 12–20 females in each treatment group including environmental (non-fed and blood-fed) and vehicle (saline-fed) control groups. The experiment began once an anesthetized mouse was introduced to the center of the cage, and females were allowed 15 min to blood-feed. The mouse was then removed, and the cage was placed at 4 °C to anesthetize females for collection. Females were aspirated into a large glass petri dish (Pyrex) and scored under a dissection microscope (Nikon SMZ1500) for powder color and blood-feeding status. Females were scored as blood-fed if fresh blood was present in the abdomen. Percent biting was calculated as females freshly blood-fed/total females in each respective treatment group.

[4] = EC50 of the individual assay date/plate (assay date), read-out: EC50
[5] = Figure 1E Summary, third list (n = 39), read-out: Reported Metric (Summary list)
[6] = single replicate, normalised response
[7] = 3.7037 uM, single replicate, normalised response
[8] = 11.1111 uM, single replicate, normalised response
[9] = 33.3333 uM, single replicate, normalised response
[10] = relative EC50, percent effect relative to 10 μM FMRFa3, read-out: EC50
[11] = sheet Figure 3C, unit inferred, read-out: EC50
[12] = summary EC50 per compound (mean over assay dates), the unit is taken from the neighbouring EC50 (uM) column, read-out: Reported Metric
[13] = fed 1 μM in saline, tested 48 h post-meal

Ae. aegypti NPYLR7, sequence (U5N1H5 entry or part of it): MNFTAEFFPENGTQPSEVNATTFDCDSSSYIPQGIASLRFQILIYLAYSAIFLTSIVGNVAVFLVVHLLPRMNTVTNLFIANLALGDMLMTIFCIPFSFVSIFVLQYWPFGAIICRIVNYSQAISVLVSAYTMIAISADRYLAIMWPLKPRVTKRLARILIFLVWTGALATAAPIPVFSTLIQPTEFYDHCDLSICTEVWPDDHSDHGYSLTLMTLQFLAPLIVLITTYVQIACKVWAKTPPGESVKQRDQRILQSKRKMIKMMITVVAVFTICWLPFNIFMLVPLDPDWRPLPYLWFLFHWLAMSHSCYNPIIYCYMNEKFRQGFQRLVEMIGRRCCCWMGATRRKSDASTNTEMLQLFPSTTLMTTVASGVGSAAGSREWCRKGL

| SMILES | pEC50 (Ae. aegypti NPYLR7; [4]) | pEC50 (Ae. aegypti NPYLR7; [5]) | activation at 1.2346 µM (Ae. aegypti NPYLR7; [6]) | activation at 3.7037 µM (Ae. aegypti NPYLR7; [7]) | activation at 11.1111 µM (Ae. aegypti NPYLR7; [8]) | activation at 33.3333 µM (Ae. aegypti NPYLR7; [9]) | activation at 100 µM (Ae. aegypti NPYLR7; normalised response) | pEC50 (Ae. aegypti NPYLR7; [10]) | EC50 (Ae. aegypti NPYLR7; [11]) | EC50 (Ae. aegypti NPYLR7; [12]) | % feeding (females feeding to repletion) [1] | Attraction (relative to saline) [2, 13] | in vitro potency (in words) (Ae. aegypti NPYLR7) | Difference between medians: Actual (vs. saline) [3] | Difference between medians: Hodges-Lehmann (vs. saline) [3] | Median (percent freshly blood-fed) [3] | Significantly different (P < 0.05)? vs. saline [3] | effect on biting / blood-feeding from a live host (in words) [3] | other results |
| --- | --- | --- | --- | --- | --- | --- | --- | --- | --- | --- | --- | --- | --- | --- | --- | --- | --- | --- | --- |
| CCCOc1ccc2c(C)nc(NC(=N)N)nc2c1 [TDI-014178] | 5.65 | 5.65 | 42.7% | 66.7% | 86.6% | 96.4% | 100% | 5.65 | 2.25 µM | 2.25 µM | 49.19% | 0.93 |  |  |  |  |  |  | Host-seeking relative to saline (test compound % host-seeking/average matched saline % host-seeking) ([2]; fed 1 μM in saline, tested 48 h post-meal, individual replicates, listed as TDI-04178): 0.93 and 1 |
| CNc1nc(NC(=N)N)nc2cc(OCC3CCOCC3)ccc12 [TDI-014188] |  |  |  |  |  |  |  | 7.22 |  |  |  | 0.895 | significantly improved in vitro potency | -21.9 | -21 | 50.00, n=11% | Yes | reduced biting behavior | Percentage of females that freshly blood-fed on an anesthetized mouse ([3]; listed as TDI-04188): 17% and 78% and 72% and 33% and 47% and 67% and 53% |
| Cc1nc(NC(=N)N)nc2cc(OCc3ccc(OC(F)F)cc3)ccc12 [TDI-014170] | 5.79 | 5.79 |  |  | 80.9% | 99.8% | 128% | 5.79 |  | 1.63 µM |  | 0.91 | high in vitro potency | -19.9 | -11 | 59.60, n=9% | No | nor did it significantly reduce biting | Percentage of females that freshly blood-fed on an anesthetized mouse ([3]; listed as TDI-04170): 44% and 57% and 85% and 74% and 53% and 82% and 55% and 62%; effect on host-seeking (in words) ([2]; fed at a dose of 1 μM): did not reduce host-seeking |
| COc1ccc2nc(N)nc(C)c2c1 [TDI-012610] |  |  |  |  |  |  |  | < 4.00 |  |  | 89.86% | 0.99 | loss of potency |  |  |  |  |  | Reported Metric (Summary list) (Ae. aegypti NPYLR7; Figure 1E Summary, first list: low sensitivity or >100 (n = 41)): low sensitivity; EC50 (uM) (Ae. aegypti NPYLR7; Figure 1E, EC50 of the single assay date/plate): low sensitivity; Reported Metric (EC50) (Ae. aegypti NPYLR7; Figure 1E, metric reported per compound, repeated on every replicate line): low sensitivity; activation at 3.7037 µM (Ae. aegypti NPYLR7; compound 3.7037 uM, single replicate well, read-out: response at 3.7037): 9.1%; activation at 11.1111 µM (Ae. aegypti NPYLR7; compound 11.1111 uM, single replicate well, read-out: response at 11.1111): 4.96%; activation at 33.3333 µM (Ae. aegypti NPYLR7; compound 33.3333 uM, single replicate well, read-out: response at 33.3333): 1.85% |
| Cc1nc(NC(=N)N)nc2cc(OCC3CC3)ccc12 [TDI-014171] | 6.04 | 6.04 | 32.9% | 50.2% | 63.8% |  | 66.3% | 6.04 | 0.912 µM | 0.912 µM |  | 0.79 |  |  |  |  |  |  |  |
| COc1ccc(COc2ccc3c(C)nc(NC(=N)N)nc3c2)cc1 [TDI-013000] |  | 7.56 |  |  |  |  |  | 7.56 |  |  |  | 0.925 |  |  |  |  |  |  | pEC50 (Ae. aegypti NPYLR7; Figure 1E summary value per compound, repeated on each replicate line, read-out: Reported Metric (EC50 summarised over assay dates)): 7.56; pEC50 (Ae. aegypti NPYLR7; fit per assay date/plate (c2), repeated on the replicate lines of one date, read-out: EC50): 7.09 and 7.55; EC50 (Ae. aegypti NPYLR7; summary value per compound, matches the mean of the EC50 (uM) values of the assay dates, column head prints no unit, Figure 1 Panel E, read-out: Reported Metric): 0.0277 µM |
